Read-outs that look alike come from different tables or passages of the source. Non-standard residues stand in square brackets, D forms with d. Residues, ends and D or L forms follow the SMILES beside them. *: point of attachment. Nva = CCC[C@H](N)C(=O)O; Cbz = O=C(OCc1ccccc1)*
What was measured:
[1] = target: T1, SARS-CoV-2 3CL^pro (Severe acute respiratory syndrome coronavirus 2, UniProt P0DTD1); format: biochemical; conditions: for IC50: read-out: 3CL^pro inhibition IC50
[2] = tested on: SARS-CoV-2 (USA_WA1/2020); test: SARS-CoV-2 cytopathic effect; format: cell-based; conditions: Vero E6 cells; for EC50: read-out: SARS-CoV-2 CPE EC50
[3] = tested on: Vero E6 cells; conditions: for CC50: read-out: Vero E6 cytotoxicity CC50
[4] = tested on: SARS-CoV-2 virus; conditions: cited from earlier work
[5] = tested on: SARS-CoV-2; conditions: cited from earlier work
[6] = target: T1, SARS-CoV-2 3CL^pro; conditions: cited from earlier work
[7] = Table 2, compounds with partial fluorescence quenching effect

Row | Compound | 3CL^pro inhibition max resp ([1]; Table 1 compounds) [%] | SARS-CoV-2 CPE efficacy ([2]; 72 h, Table 1 compounds) [%] | EC50 ([2]; 72 h, Table 1 compounds) [µM] | Vero E6 cytotoxicity efficacy ([3]; no virus, Table 1 compounds) [%] | CC50 ([3]; no virus, Table 1 compounds) [µM] | also measured
1 | C/C1=C2/[N-][C@H]([C@H](CC(N)=O)[C@@]2(C)CCC(=O)NC[C@@H](C)OP(=O)([O-])O[C@H]2[C@@H](O)[C@@H](n3cnc4cc(C)c(C)cc43)O[C@@H]2CO)[C@]2(C)N=C(/C(C)=C3N=C(/C=C4N=C1[C@@H](CCC(N)=O)C\4(C)C)[C@@H](CCC(N)=O)[C@]\3(C)CC(N)=O)[C@@H](CCC(N)=O)[C@]2(C)CC(N)=O.[Co+3].[OH-] [hydroxocobalamin] | 89.56 | 0 | > 20 | 0 | > 20 | activity in CPE assay [2]: neither effective in CPE assay; cytotoxicity to Vero E6 cells [3]: nor cytotoxic to Vero E6 cells
2 | O=C1c2ccccc2-[n+]2ccc3c([nH]c4ccccc43)c21 [fascaplysin] | 63.44 | 0 | – | 99.28 | – | –
3 | CCCCCCCCCCCCCCCCC(C(=O)O)C(O)(CC(=O)O)C(=O)O (centres unmarked) [agaric acid] | 110.16 | 0 | > 20 | 0 | > 20 | –
4 | CC#C[C@@H](CC(=O)O)c1ccc(OCc2cccc(-c3ccc(C(F)(F)F)cc3)c2)cc1 [AMG-837] | – | – | – | – | – | 3CL^pro inhibition max resp [1, 7]: 65.79%; SARS-CoV-2 CPE efficacy ([2]; Table 2 quenching compounds): 106.31%; Vero E6 cytotoxicity efficacy ([3]; Table 2 quenching compounds): 20.2%
5 | CSCC[C@@H](C=O)NC(=O)[C@H](CC(C)C)NC(=O)[C@H](CC(C)C)NC(C)=O [calpain inhibitor II] (Ac-Leu-Leu-Met-aldehyde) | – | – | – | – | – | activity in CPE and viral yield reduction assays [4]: active in both CPE and viral yield reduction assays
6 | Cc1[nH]c(/C=C2\C(=O)Nc3cc(-c4ccccc4)ccc32)c(C)c1CCC(=O)O [SU 16f] | – | 0 | > 20 | 23.57 | 7.94 | –
7 | Cc1cc(C(=O)N[C@@H](C)C(=O)N[C@H](C(=O)N[C@@H](CC(C)C)C(=O)NC(/C=C/C(=O)OCc2ccccc2)C[C@@H]2CCNC2=O)C(C)C)no1 (some centres unmarked) [N3] | – | – | – | – | – | antiviral activity in viral RNA quantification and plaque-reduction assays [5]: strongest antiviral activity
8 | O=C(O)Cc1cccc(OCCCN(Cc2cccc(C(F)(F)F)c2Cl)CC(c2ccccc2)c2ccccc2)c1 [GSK-3965] | – | – | – | – | – | 3CL^pro inhibition max resp [1]: 108.24%; IC50 [1]: 21.5 µM; SARS-CoV-2 CPE efficacy ([2]; Table 2 quenching compounds): 22.51%; Vero E6 cytotoxicity efficacy ([3]; Table 2 quenching compounds): 82.34%; CC50 ([3]; Table 2 quenching compounds): 14.1 µM
9 | O=C1Nc2ccc(I)cc2/C1=C/c1cc(Br)c(O)c(Br)c1 [GW5074] | – | – | – | – | – | 3CL^pro inhibition max resp [1, 7]: 63.16%; Vero E6 cytotoxicity efficacy ([3]; Table 2 quenching compounds): 20.1%; CC50 ([3]; Table 2 quenching compounds): 11.2 µM
10 | vitamin B12 | – | 0 | > 20 | 0 | > 20 | 3CL^pro inhibition max resp [1]: 71.06%
11 | O.O=C(OC[C@H]1O[C@@H](OC(=O)c2cc(O)c(O)c(O)c2)[C@H](OC(=O)c2cc(O)c(O)c(O)c2)[C@@H](OC(=O)c2cc(O)c(O)c(O)c2)[C@@H]1OC(=O)c1cc(O)c(O)c(O)c1)c1cc(O)c(O)c(O)c1 [penta-O-galloyl-β-D-glucose hydrate] | 109.94 | – | – | 80.28 | 11.2 | –
12 | O=C1C(SCCO)=C(SCCO)C(=O)c2ccccc21 [NSC 95397] | 98.7 | 0 | > 20 | 111.33 | 14.1 | –
13 | Cc1cc(SCc2sc(-c3ccc(C(F)(F)F)c(F)c3)nc2C)ccc1OCC(=O)O [GW-0742] | 126.23 | 0 | > 20 | 0 | > 20 | –
14 | Cc1cc(O[C@@H](CCC(F)(F)F)c2ccc(C(=O)NCCC(=O)O)cc2)cc(C)c1-c1ccc(C(C)(C)C)cc1 [adomeglivant] | – | – | – | – | – | SARS-CoV-2 CPE efficacy ([2]; Table 2 quenching compounds): 49.2%; Vero E6 cytotoxicity efficacy ([3]; Table 2 quenching compounds): 36.97%
15 | CN[C@H](CC(C)C)C(=O)N[C@H]1C(=O)N[C@@H](CC(N)=O)C(=O)N[C@H]2C(=O)N[C@H]3C(=O)N[C@H](C(=O)N[C@H](C(=O)O)c4cc(O)cc(O)c4-c4cc3ccc4O)[C@H](O[C@H]3C[C@](C)(N)[C@@H](O)[C@H](C)O3)c3ccc(c(Cl)c3)Oc3cc2cc(c3O[C@@H]2O[C@H](CO)[C@@H](O)[C@H](O)[C@H]2O[C@H]2C[C@](C)(NCc3ccc(-c4ccc(Cl)cc4)cc3)[C@@H](O)[C@H](C)O2)Oc2ccc(cc2Cl)[C@H]1O.O=P(O)(O)O.O=P(O)(O)O [oritavancin (diphosphate)] | 93.29 | 0 | > 20 | 23.51 | 14.1 | –
16 | Cc1cccc(C)c1OCC(=O)N[C@@H](Cc1ccccc1)[C@@H](O)C[C@H](Cc1ccccc1)NC(=O)[C@H](C(C)C)N1CCCNC1=O [Lopinavir] | – | – | – | – | – | inhibition of 3CL^pro [6]: did not show inhibition
17 | CC(C)c1ccc2c(c1)c(SC(C)(C)C)c(CC(C)(C)C(=O)O)n2Cc1ccc(Cl)cc1 [MK-886] | – | – | – | – | – | 3CL^pro inhibition max resp [1, 7]: 109.11%; Vero E6 cytotoxicity efficacy ([3]; Table 2 quenching compounds): 40.83%; CC50 ([3]; Table 2 quenching compounds): 14.1 µM
18 | O=C(Nc1cc(C(F)(F)F)cc(C(F)(F)F)c1)c1cnc(Cl)nc1C(F)(F)F [SP 100030] | – | 0 | > 20 | 0 | > 20 | –

Row | Compound | 3CL^pro inhibition max resp ([1]; Table 1 compounds) [%] | SARS-CoV-2 CPE efficacy ([2]; 72 h, Table 1 compounds) [%] | EC50 ([2]; 72 h, Table 1 compounds) [µM] | Vero E6 cytotoxicity efficacy ([3]; no virus, Table 1 compounds) [%] | CC50 ([3]; no virus, Table 1 compounds) [µM] | also measured
19 | CCCC(NC(=O)C(CC(C)C)NC(=O)OCc1ccccc1)C(=O)C(=O)NCc1ccccn1 (centres unmarked) [calpain inhibitor XII] | – | – | – | – | – | activity in CPE and viral yield reduction assays [4]: active in both CPE and viral yield reduction assays
20 | CCC[C@@H](C=O)NC(=O)[C@H](CC(C)C)NC(=O)[C@H](CC(C)C)NC(=O)OCc1ccccc1 [MG-115] (Cbz-Leu-Leu-[Nva]-aldehyde) | 74.89 | – | – | 115.48 | 1.13 | –
21 | COc1ccc2cc(-c3cc(-c4cc(Cl)cc(Cl)c4)nn3[C@@H](C)c3ccc(C(=O)NCCC(=O)O)cc3)ccc2c1 [MK 0893] | 95.77 | 23.89 | – | 80.04 | – | –
22 | CCCCCCCc1ccc(CCc2cccc(O)c2C(=O)O)cc1 [MG-149] | – | – | – | – | – | Vero E6 cytotoxicity efficacy ([3]; Table 2 quenching compounds): 23.42%
23 | Brc1c(Br)c(Br)c2n[nH]nc2c1Br [TBB] | 77.96 | – | – | 80.93 | 8.91 | –
24 | Oc1c(Cl)cc(Cl)c(Cl)c1Cc1c(O)c(Cl)cc(Cl)c1Cl [hexachlorophene] | – | – | – | – | – | Vero E6 cytotoxicity efficacy ([3]; Table 2 quenching compounds): 63.02%
25 | CCCCCCCCCCCCCCCc1cccc(O)c1C(=O)O [anacardic acid] | – | – | – | – | – | 3CL^pro inhibition max resp [1, 7]: 105.9%; SARS-CoV-2 CPE efficacy ([2]; Table 2 quenching compounds): 89.62%; EC50 ([2]; Table 2 quenching compounds): 3.98 µM; Vero E6 cytotoxicity efficacy ([3]; Table 2 quenching compounds): 72.92%
26 | CC(C)(C)NC(=O)N[C@H](C(=O)N1C[C@H]2[C@@H]([C@H]1C(=O)NC(CC1CCC1)C(=O)C(N)=O)C2(C)C)C(C)(C)C (some centres unmarked) [Boceprevir] | – | – | – | – | – | activity in CPE and viral yield reduction assays [4]: active in both CPE and viral yield reduction assays; EC50 ([4]; read-out: EC50 against SARS-CoV-2 virus infection in the CPE assay): 1.9 µM
27 | O=C1C(Cl)=C(NCCN2CCOCC2)C(=O)c2ncccc21 [DA-3003–1] | – | 53.77 | 4.47 | 112 | 7.74 | activity in CPE assay [2]: exhibited CPE activity
28 | CC1(C)OC2=C(C(=O)c3ccccc3C2=O)[C@H](NCc2ccccc2)[C@@H]1O [CAY-10581] | – | 0 | > 20 | 0 | > 20 | –
29 | CC(C)c1nc(CN(C)C(=O)N[C@H](C(=O)N[C@@H](Cc2ccccc2)C[C@H](O)[C@H](Cc2ccccc2)NC(=O)OCc2cncs2)C(C)C)cs1 [ritonavir] | – | – | – | – | – | inhibition of 3CL^pro [6]: did not show inhibition
30 | CC1(C)CCC2=C(O1)c1ccccc1C(=O)C2=O [beta-lapachone] | 60.88 | 0 | – | 15.06 | – | –
31 | O=c1c2ccccc2[se]n1-c1ccccc1 [ebselen] | – | – | – | – | – | antiviral activity in viral RNA quantification and plaque-reduction assays [5]: strongest antiviral activity
32 | O=C(O)c1ccc(N2C(=O)/C(=C\c3ccc(-c4ccc([N+](=O)[O-])cc4)o3)C=C2c2ccccc2)cc1 [4E1RCat] | 76.33 | 0 | > 20 | 0 | > 20 | IC50 [1]: 18.3 µM
33 | CC1=NN(c2ccc(C)c(C)c2)C(=O)/C1=N\Nc1cccc(-c2cccc(C(=O)O)c2)c1O [eltrombopag olamine] | – | – | – | – | – | SARS-CoV-2 CPE efficacy ([2]; Table 2 quenching compounds): 74.39%; Vero E6 cytotoxicity efficacy ([3]; Table 2 quenching compounds): 68.67%
34 | Cc1ccc(C(=O)Nc2ccc(S(=O)(=O)O)c3cc(S(=O)(=O)O)cc(S(=O)(=O)O)c23)cc1NC(=O)c1cccc(NC(=O)Nc2cccc(C(=O)Nc3cc(C(=O)Nc4ccc(S(=O)(=O)O)c5cc(S(=O)(=O)O)cc(S(=O)(=O)O)c45)ccc3C)c2)c1 [suramin sodium] | 99.49 | 0 | – | 0 | – | activity in CPE assay [2]: neither effective in CPE assay; cytotoxicity to Vero E6 cells ([3]; African green monkey): nor cytotoxic to Vero E6 cells
35 | COCCn1c2c([n+](Cc3cnccn3)c1C)C(=O)c1ccccc1C2=O [sepantronium bromide] | 61.79 | 0 | – | 20.12 | – | –

— publication PMC7507806 (ACS Pharmacology & Translational Science, 2020)
